ChEMBL document CHEMBL1136005 (J Med Chem, 2002)

test system: not listed separately; assay: Lipophilicity was reported; format: physicochemical; details: octanol/water

logD	SMILES
3.22	COc1cc2ncnc(N3CCN(C(=O)Nc4ccc([N+](=O)[O-])cc4)CC3)c2cc1OC

biological target: Platelet-derived growth factor receptor (Homo sapiens, UniProt P09619+P16234); assay: Concentration required for 50% inhibition against autophosphorylation of Platelet-derived growth factor receptor beta in intact cells using a two site ELISA; format: cell-based; details: not given

SMILES	IC50 [µM]
COc1cc2ncnc(N3CCN(C(=S)NCC4(c5ccc(Cl)cc5)CC4)CC3)c2cc1OC	> 30
COc1cc2ncnc(N3CCN(C(=O)NS(=O)(=O)c4ccc(Cl)cc4)CC3)c2cc1OC	> 30
COc1cc2ncnc(N3CCN(C(=S)NCCc4cccnc4)CC3)c2cc1OC	20.1
COc1cc2ncnc(N3CCN(/C(=C/[N+](=O)[O-])NCc4ccc5c(c4)OCO5)CC3)c2cc1OC	> 30
COc1cc2ncnc(N3CCN(C(=O)Oc4ccc([N+](=O)[O-])cc4)CC3)c2cc1OC	> 30
COc1cc2ncnc(N3CCN(C(=S)NCC4CCCCC4)CC3)c2cc1OC	> 10
COc1ccc(CNC(=S)N2CCN(c3ncnc4cc(OC)c(OC)cc34)CC2)cc1OC	2.41
COc1cc2ncnc(N3CCN(C(=O)NCc4ccsc4)CC3)c2cc1OC	> 30
COc1cc2ncnc(N3CCN(C(=O)Nc4cncc(Cl)c4)CC3)c2cc1OC	8.23
COc1cc2ncnc(N3CCN(C(=O)NCCc4ccc(Cl)cc4)CC3)c2cc1OC	5.84
COc1cc2ncnc(N3CCN(C(=O)NCc4ccc(C)cc4)CC3)c2cc1OC	2.94
COc1cc2ncnc(N3CCN(C(=O)Nc4ccncc4)CC3)c2cc1OC	14.1
COc1cc2ncnc(N3CCN(C(=S)N[C@H](C)c4ccccc4)CC3)c2cc1OC	> 30
COc1cc2ncnc(N3CCN(C(=NC#N)NCc4cccc(Cl)c4)CC3)c2cc1OC	23.5
COc1cc2ncnc(N3CCN(C(=O)Nc4cccnc4)CC3)c2cc1OC	> 30
COc1cc2ncnc(N3CC(C)N(C(=O)Nc4ccc(Oc5ccccc5)cc4)CC3C)c2cc1OC (centres undefined)	> 30
COc1cc2ncnc(N3CCN(C(=S)Nc4ccccn4)CC3)c2cc1OC	> 30
COc1cc2ncnc(N3CCN(C(=O)N(C)c4ccc(Br)cc4)CC3)c2cc1OC	> 30
COc1cc2ncnc(N3CCN(C(NCc4ccc(Cl)cc4)=C(C#N)C#N)CC3)c2cc1OC	5.24
COc1cc2ncnc(N3CCN(C(=S)NC(=O)c4ccc(Cl)cc4)CC3)c2cc1OC	> 30
COc1cc2ncnc(N3CCN(C(=O)Nc4ccccn4)CC3)c2cc1OC	> 10
COc1cc2ncnc(N3CCN(C(=O)NCc4ccc(F)cc4)CC3)c2cc1OC	9.59
COc1cc2ncnc(N3CCN(/C(S)=N\CC4CCCO4)CC3)c2cc1OC (centres undefined)	> 30
COc1cc2ncnc(N3CCN(C(=NC#N)NCc4ccccc4Cl)CC3)c2cc1OC	> 30
COc1cc2ncnc(N3CCN(C(=S)N(C)Cc4ccccc4)CC3)c2cc1OC	> 30

The next lines start with the values.

IC50 [µM]	SMILES
1.87	COc1cc2ncnc(N3CCN(C(=O)NCc4ccc5c(c4)OCO5)CC3)c2cc1OC
1.38	COc1cc2ncnc(N3CCN(C(=NC#N)NCc4ccc(C(C)C)cc4)CC3)c2cc1OC
1.27	COc1cc2ncnc(N3CCN(C(=O)NCc4ccc(Cl)cc4)CC3)c2cc1OC
1.09	COc1cc2ncnc(N3CCN(C(=S)NCCc4ccc(Cl)cc4)CC3)c2cc1OC
0.98	COc1cc2ncnc(N3CCN(C(=S)NCc4ccccc4Cl)CC3)c2cc1OC
0.98	COc1cc2ncnc(N3CCN(C(=S)Nc4ccncc4)CC3)c2cc1OC
0.96	COc1cc2ncnc(N3CCN(/C(S)=N\Cc4ccc(Oc5ccccc5)cc4)CC3)c2cc1OC
0.96	COc1cc2ncnc(N3CCN(C(=NC#N)NCc4ccc(Cl)cc4)CC3)c2cc1OC
0.79	COc1cc2ncnc(N3CCN(C(=S)Nc4ccc(Cl)cc4)CC3)c2cc1OC
0.74	COc1cc2ncnc(N3CCN(C(=O)NCc4ccc(Br)cc4)CC3)c2cc1OC
0.64	COc1cc2ncnc(N3CC(C)N(/C(S)=N\Cc4ccccc4)C(C)C3)c2cc1OC (centres undefined)
0.55	COc1cc2ncnc(N3CCN(C(=S)Nc4cncc(Cl)c4)CC3)c2cc1OC
0.55	COc1cc2ncnc(N3CCN(C(=O)NCc4ccc(C(C)C)cc4)CC3)c2cc1OC
0.54	COc1cc2ncnc(N3CCN(C(=S)N[C@@H](C)c4ccccc4)CC3)c2cc1OC
0.53	COc1cc2ncnc(N3CCN(C(=O)Nc4ccc(Br)cc4)CC3)c2cc1OC
0.41	COc1cc2ncnc(N3CCN(C(=S)Nc4cccnc4)CC3)c2cc1OC
0.41	COc1cc2ncnc(N3CCN(C(=O)Nc4cccs4)CC3)c2cc1OC
0.34	COc1cc2ncnc(N3CCN(C(=NC#N)NCc4ccc(C)cc4)CC3)c2cc1OC
0.23	COc1cc2ncnc(N3CCN(C(=S)NCc4cccc(Cl)c4)CC3)c2cc1OC
0.2	COc1cc2ncnc(N3CCN(C(=S)NCc4ccc(C(C)C)cc4)CC3)c2cc1OC
0.19	COc1cc2ncnc(N3CCN(C(=NC#N)NCc4ccc5c(c4)OCO5)CC3)c2cc1OC
0.16	COc1cc2ncnc(N3CCN(C(=S)NCc4ccc(C(C)(C)C)cc4)CC3)c2cc1OC
0.14	COc1cc2ncnc(N3CCN(C(=O)NCC(=O)c4ccc(Br)cc4)CC3)c2cc1OC
0.11	COc1cc2ncnc(N3CCN(C(=O)NCc4ccc(C(C)(C)C)cc4)CC3)c2cc1OC
0.08	COc1cc2ncnc(N3CCN(C(=O)Nc4ccc(Oc5ccccc5)cc4)C(C)C3)c2cc1OC (centres undefined)
0.03	COc1cc2ncnc(N3CCN(C(=O)Nc4ccc(C(C)(C)C)cc4)CC3)c2cc1OC
0.03	COc1cc2ncnc(N3CCN(C(=S)NCc4ccc(Br)cc4)CC3)c2cc1OC
0.03	COc1cc2ncnc(N3CCN(C(=S)NCc4ccc(C)cc4)CC3)c2cc1OC
